From ChEMBL document CHEMBL5625228, “Design, synthesis, and bioactivity evaluation of novel amide/sulfonamide derivatives as potential anti-inflammatory agents against acute lung injury and ulcerative colitis” (Eur J Med Chem, 2023)
The source made the active and inactive calls. No cut-off for these calls is given here.

How the values were obtained:
[1] = test system: J774.A1; experiment: Antiinflammatory activity against mouse J774.A1 cells assessed as inhibition of LPS-induced TNF-alpha production pretreated with compound for 30 mins followed by LPS induction and measured after 24 hrs by ELISA analysis; assay type: functional; conditions: for inhibition (INH): time 1470 min, 24.5 h; for INH: test concentration or dose not given here
[2] = test system: J774.A1; experiment: Antiinflammatory activity against mouse J774.A1 cells assessed as inhibition of LPS-induced IL-6 production pretreated with compound for 30 mins followed by LPS induction and measured after 24 hrs by ELISA analysis; assay type: functional; conditions: for inhibition (INH): time 1470 min, 24.5 h; for INH: test concentration or dose not given here

SMILES | inhibition (INH) [1] | inhibition (INH) [2] | inhibition ([1]; time 1470.0 min) | inhibition ([2]; time 1470.0 min)
O=[N+]([O-])c1cccc(CN2CCN(CCS(=O)(=O)Nc3cccc4ccccc34)CC2)c1 | 48.04% | 39.74% | – | –
O=S(=O)(CCN1CCN(c2ncccn2)CC1)NCc1ccccn1 | 40.39% | 50.45% | – | –
COc1ccc(CN2CCN(CCS(=O)(=O)Nc3cccc4ccccc34)CC2)cc1 | 38.07% | 46.54% | – | –
COc1ccc(CN2CCN(c3ccc(S(=O)(=O)NCc4ccccn4)cc3[N+](=O)[O-])CC2)cc1 | 18.06% | 53.8% | – | –
O=[N+]([O-])c1ccc(N2CCN(CCS(=O)(=O)NCc3ccccn3)CC2)cc1 | 51.16% | 60.1% | – | –
COc1ccc(NS(=O)(=O)CCN2CCN(c3ccc([N+](=O)[O-])cc3)CC2)cn1 | 47.01% | 54.03% | – | –
O=[N+]([O-])c1ccc(N2CCN(CCS(=O)(=O)Nc3ccc4ncccc4c3)CC2)cc1 | 41.31% | 63.27% | – | –
O=C(CN1CCN(Cc2cccc([N+](=O)[O-])c2)CC1)Nc1cccc2ccccc12 | 49.62% | 36.57% | – | –
COc1ccc(NC(=O)CN2CCN(c3ccc([N+](=O)[O-])cc3)CC2)cn1 | 35.31% | 26.57% | – | –
CC(=O)Nc1ncc(CN2CCN(c3ccc(S(=O)(=O)NCc4ccccn4)cc3[N+](=O)[O-])CC2)s1 | 31.13% | 40.3% | – | –
COc1ccc(NS(=O)(=O)CCN2CCN(Cc3ccccc3)CC2)cn1 | 16.24% | 13.57% | – | –
COc1ccc(CN2CCN(CC(=O)Nc3ccc(OC)nc3)CC2)cc1 | 38.65% | 19.35% | – | –
O=S(=O)(CCN1CCN(c2ncccn2)CC1)Nc1ccc2ncccc2c1 | 5.34% | 23.7% | – | –
O=[N+]([O-])c1ccc(CN2CCN(CCS(=O)(=O)Nc3ccc4ncccc4c3)CC2)cc1 | 24.49% | 58.07% | – | –
COc1ccc(CN2CCN(CC(=O)NCc3ccccn3)CC2)cc1 | 38.64% | 3.21% | – | –
COc1ccc(NC(=O)CN2CCN(Cc3cnc(NC(C)=O)s3)CC2)cn1 | 53.08% | 47.13% | – | –
COc1ccc(CN2CCN(CCS(=O)(=O)NCc3ccccn3)CC2)cc1 | 35.94% | 44.03% | – | –
O=C(CCN1CCN(Cc2ccccc2)CC1)Nc1cccc2ccccc12 | 55.28% | 50.93% | – | –
O=C(CCN1CCN(c2ccc([N+](=O)[O-])cc2)CC1)NCc1ccccn1 | 20.88% | 19.64% | – | –
O=C(CN1CCN(Cc2ccccc2)CC1)NCc1ccccn1 | 40.91% | 23.3% | – | –
O=C(CN1CCN(c2ncccn2)CC1)Nc1cccc2ccccc12 | 18.5% | 9.078% | – | –
O=C(CCN1CCN(Cc2ccc([N+](=O)[O-])cc2)CC1)NCc1ccccn1 | 25.79% | 36.81% | – | –

SMILES | inhibition (INH) [1] | inhibition (INH) [2] | inhibition ([1]; time 1470.0 min) | inhibition ([2]; time 1470.0 min)
O=C(CN1CCN(c2ncccn2)CC1)NCc1ccccn1 | 38.32% | 40.7% | – | –
O=S(=O)(CCN1CCN(Cc2ccccc2)CC1)Nc1ccc2ncccc2c1 | 9.54% | 43.09% | – | –
O=S(=O)(CCN1CCN(Cc2ccccc2)CC1)Nc1cccc2ccccc12 | 38.58% | 36.45% | – | –
COc1ccc(NC(=O)CN2CCN(Cc3ccc([N+](=O)[O-])cc3)CC2)cn1 | 37.85% | 35.43% | – | –
O=C(CN1CCN(c2ccc([N+](=O)[O-])cc2)CC1)NCc1ccccn1 | 57.51% | 49.31% | – | –
COc1ccc(NS(=O)(=O)CCN2CCN(Cc3ccc([N+](=O)[O-])cc3)CC2)cn1 | 38.83% | 42.48% | – | –
O=C(CCN1CCN(Cc2ccccc2)CC1)NCc1ccccn1 | 40.52% | 31% | – | –
O=S(=O)(CCN1CCN(c2ncccn2)CC1)Nc1cccc2ccccc12 | 12.33% | 10.6% | – | –
O=[N+]([O-])c1ccc(CN2CCN(CCS(=O)(=O)Nc3cccc4ccccc34)CC2)cc1 | 52.22% | 51.66% | – | –
COc1ccc(NS(=O)(=O)CCN2CCN(Cc3cccc([N+](=O)[O-])c3)CC2)cn1 | 34.88% | 30.6% | – | –
O=[N+]([O-])c1ccc(N2CCN(CCS(=O)(=O)Nc3cccc4ccccc34)CC2)cc1 | 48.59% | 54.08% | – | –
O=C(CN1CCN(Cc2ccc([N+](=O)[O-])cc2)CC1)NCc1ccccn1 | 42.8% | 36.43% | – | –
CC(=O)Nc1ncc(CN2CCN(CCS(=O)(=O)Nc3cccc4ccccc34)CC2)s1 | 25.56% | 43.92% | – | –
O=[N+]([O-])c1cc(S(=O)(=O)NCc2ccccn2)ccc1N1CCN(c2ncccn2)CC1 | 18.24% | 20.86% | – | –
O=C(CN1CCN(Cc2ccccc2)CC1)Nc1cccc2ccccc12 | 40.65% | 37.08% | – | –
O=C(CN1CCN(Cc2ccc([N+](=O)[O-])cc2)CC1)Nc1cccc2ccccc12 | 44.12% | 51.42% | – | –
COc1ccc(CN2CCN(CCS(=O)(=O)Nc3ccc(OC)nc3)CC2)cc1 | 39.86% | 55.78% | – | –
O=S(=O)(CCN1CCN(Cc2ccccc2)CC1)NCc1ccccn1 | 43.92% | 54.87% | – | –
CC(=O)Nc1ncc(CN2CCN(CC(=O)NCc3ccccn3)CC2)s1 | 36.32% | 19.68% | – | –
COc1ccc(CN2CCN(CC(=O)Nc3cccc4ccccc34)CC2)cc1 | – | – | inactive | inactive
COc1ccc(CN2CCN(CCS(=O)(=O)Nc3ccc4ncccc4c3)CC2)cc1 | 31.97% | 50.52% | – | –
COc1ccc(NC(=O)CN2CCN(c3ncccn3)CC2)cn1 | 47.96% | 33.21% | – | –
